Reference: patent US20150105252A1, “SUBSTITUTED PYRAZOLES AS HERBICIDES” (E I DU PONT DE NEMOURS AND COMPANY, priority 2013, published 2015)

Key:
ragweed [1] = test: Test C postemergence; type: in vivo, Ambrosia elation
Summary of the method: (§1)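 Greenhouse pot test: preemergence application onto freshly seeded loam/sand mix, postemergence application onto seedlings (1–4 leaves, 2–18 cm) in peat-vermiculite substrate. Responses scored visually 13 to 15 days later relative to controls, where 0 means no effect and 100 means complete control; a dash indicates no result.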

wheat = test: Test A preemergence; type: in vivo, Triticum aestivum; conditions: preemergence
Summary of the method: (§2)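 Seeds were sown in a loam soil–sand blend and given a directed soil spray preemergence; postemergence plants at 2–10 cm, one- to two-leaf stage, were sprayed with compound in non-phytotoxic solvent with surfactant. After about 10 days in a greenhouse, injury was visually rated against untreated controls (0 = no effect, 100 = complete control).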

foxtail, giant = test: Test A preemergence; type: in vivo, Setaria faberii; conditions: preemergence
Summary of the method: as §2

pigweed [2] = test: Test C postemergence; type: in vivo, Amaranthus retroflexus; conditions: for Plant response rating (scale of 0 to 100 where 0 is no effect and 100 is complete control), Pigweed: Postemergence, 31 g ai/ha, visually evaluated after 13 to 15 days; for Pigweed plant response rating / Plant response rating, Pigweed: postemergence; for Pigweed plant response rating: 62 g ai/ha, scale 0 to 100
Summary of the method: as §1

nutsedge, yellow = test: Test C postemergence; type: in vivo, Cyperus esculentus; conditions: for Plant response rating (scale of 0 to 100 where 0 is no effect and 100 is complete control), Nutsedge, Yellow: Postemergence, 31 g ai/ha, visually evaluated after 13 to 15 days; for Nutsedge, Yellow plant response rating / Plant response rating, Nutsedge, Yellow: postemergence; for Nutsedge, Yellow plant response rating: 62 g ai/ha, scale 0 to 100
Summary of the method: as §1

velvetleaf = test: Test A preemergence; type: in vivo, Abutilon theophrasti; conditions: preemergence
Summary of the method: as §2

rice = test: Test B flood; type: in vivo, Oryza sativa; conditions: 250 g ai/ha, visual rating on 0 to 100 scale (0 no effect, 100 complete control), 13 to 15 days
Summary of the method: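 Plants were grown to the 2-leaf stage, then pots were flooded to 3 cm above the soil and compounds were applied directly into the paddy water. Water depth was held for the whole test; after 13 to 15 days in a greenhouse, injury was visually rated against untreated controls (0 = no effect, 100 = complete control).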

corn [3] = test: Test C preemergence; type: in vivo, Zea mays; conditions: for Plant response rating (scale of 0 to 100), Corn: Preemergence
Summary of the method: as §1

ragweed [4] = test: Test C preemergence; type: in vivo, Ambrosia elation; conditions: for Plant response rating (scale of 0 to 100), Ragweed: Preemergence
Summary of the method: as §1

crabgrass, large = test: Test A preemergence; type: in vivo, Digitaria sanguinalis; conditions: preemergence
Summary of the method: as §2

galium = test: Test C preemergence; type: in vivo, Galium aparine; conditions: for Plant response rating (scale of 0 to 100), Galium: Preemergence
Summary of the method: as §1

corn [5] = test: Test A postemergence; type: in vivo, Zea mays
Summary of the method: as §2

pigweed [6] = test: Test A postemergence; type: in vivo, Amaranthus retroflexus
Summary of the method: as §2

blackgrass = test: Test C postemergence; type: in vivo, Alopecurus myosuroides; conditions: for Plant response rating (scale of 0 to 100 where 0 is no effect and 100 is complete control), Blackgrass: Postemergence, 31 g ai/ha, visually evaluated after 13 to 15 days; for Blackgrass plant response rating / Plant response rating, Blackgrass: postemergence; for Blackgrass plant response rating: 62 g ai/ha, scale 0 to 100
Summary of the method: as §1

[7] = postemergence, 250 g ai/ha, scale 0 to 100 (0 no effect, 100 complete control)
[8] = 125 g ai/ha, visual injury, 0 to 100 scale, approx. 10 days
[9] = 500 g ai/ha, visual injury after approx. 10 days, 0 to 100 scale (0 no effect, 100 complete control)
[10] = 250 g ai/ha, scale 0 to 100 (0 no effect, 100 complete control)
[11] = 125 g ai/ha, scale 0 to 100, 0 no effect, 100 complete control
[12] = preemergence, 31 g ai/ha, visual rating, scale 0 to 100 (0 no effect, 100 complete control), 13 to 15 days
[13] = preemergence, 62 g ai/ha, scale 0 to 100 (0 no effect, 100 complete control), 13 to 15 days
[14] = preemergence, 125 g ai/ha, scale 0 to 100, 0 is no effect, 100 is complete control
[15] = Postemergence, 500 g ai/ha, visual rating after approx. 10 days, 0 to 100 scale (0 no effect, 100 complete control)
[16] = postemergence, 125 g ai/ha, about 10 days, visual rating on 0 to 100 scale (0 no effect, 100 complete control)
[17] = postemergence, 125 g ai/ha, scale 0 to 100, 0 no effect, 100 complete control
[18] = 125 g ai/ha, visual injury approx. 10 days after treatment
[19] = preemergence, 125 g ai/ha, 13 to 15 days, scale 0 to 100, 0 = no effect, 100 = complete control
[20] = preemergence, 250 g ai/ha, scale 0 to 100, 0 is no effect, 100 is complete control
[21] = Postemergence, 500 g ai/ha, 0 to 100 scale (0 no effect, 100 complete control)

CCCNC(=O)c1cc(CC)n(Cc2nc(C(F)(F)F)nn2C)n1 [Compound 109]
Plant response rating, Ragweed (ragweed [1]; [7]): 80
Wheat plant response rating (wheat; [8]): 30
Wheat plant response rating (wheat; [9]): 90
Foxtail, Giant plant response rating (foxtail, giant; [8]): 100
Foxtail, Giant plant response rating (foxtail, giant; [9]): 100
Plant response rating (scale of 0 to 100 where 0 is no effect and 100 is complete control), Pigweed (pigweed [2]): 10
Pigweed plant response rating (pigweed [2]): 40
Plant response rating, Pigweed (pigweed [2]; [10]): 65
Plant response rating, Pigweed (pigweed [2]; [11]): 65
Plant response rating (scale of 0 to 100 where 0 is no effect and 100 is complete control), Nutsedge, Yellow (nutsedge, yellow): 0
Nutsedge, Yellow plant response rating (nutsedge, yellow): 5
Plant response rating, Nutsedge, Yellow (nutsedge, yellow; [10]): 5
Plant response rating, Nutsedge, Yellow (nutsedge, yellow; [11]): 5
Velvetleaf plant response rating (velvetleaf; [8]): 70
Velvetleaf plant response rating (velvetleaf; [9]): 100
Plant response rating, Rice (rice): 0
Plant response rating (scale of 0 to 100), Corn (corn [3]; 250 g ai/ha): 100
Corn plant response rating (corn [3]; [12]): 25
Corn plant response rating (corn [3]; [13]): 85
Corn plant response rating (corn [3]; [14]): 95
Plant response rating (scale of 0 to 100), Ragweed (ragweed [4]; 250 g ai/ha): 100
Ragweed plant response rating (ragweed [4]; [12]): 100
Ragweed plant response rating (ragweed [4]; [13]): 100
Ragweed plant response rating (ragweed [4]; [14]): 100
Crabgrass, Large plant response rating (crabgrass, large; [8]): 100
Crabgrass, Large plant response rating (crabgrass, large; [9]): 100
Plant response rating (scale of 0 to 100), Galium (galium; 250 g ai/ha): 100
Galium plant response rating (galium; [12]): 10
Galium plant response rating (galium; [13]): 100
Galium plant response rating (galium; [14]): 100
Corn plant response rating (corn [5]; [15]): 90
Corn plant response rating (corn [5]; [16]): 80
Pigweed plant response rating (pigweed [6]; [15]): 90
Pigweed plant response rating (pigweed [6]; [16]): 90
Plant response rating (scale of 0 to 100 where 0 is no effect and 100 is complete control), Blackgrass (blackgrass): 5
Blackgrass plant response rating (blackgrass): 5
Plant response rating, Blackgrass (blackgrass; [10]): 15
Plant response rating, Blackgrass (blackgrass; [11]): 10

CCc1cc(C(=O)NCC(F)(F)F)nn1Cc1nc(C(F)(F)F)nn1C [Compound 107]
Plant response rating (scale of 0 to 100 where 0 is no effect and 100 is complete control), Ragweed (ragweed [1]; Postemergence, 31 g ai/ha, visually evaluated after 13 to 15 days): 10
Ragweed plant response rating (ragweed [1]; postemergence, 62 g ai/ha, scale 0 to 100): 65
Plant response rating, Ragweed (ragweed [1]; [7]): 90
Plant response rating, Ragweed (ragweed [1]; [17]): 85
Wheat plant response rating (wheat; [8]): 10
Wheat plant response rating (wheat; [9]): 90
Foxtail, Giant plant response rating (foxtail, giant; [8]): 100
Foxtail, Giant plant response rating (foxtail, giant; [9]): 100
Plant response rating (scale of 0 to 100 where 0 is no effect and 100 is complete control), Pigweed (pigweed [2]): 50
Pigweed plant response rating (pigweed [2]): 85
Plant response rating, Pigweed (pigweed [2]; [10]): 85
Plant response rating, Pigweed (pigweed [2]; [11]): 85
Plant response rating (scale of 0 to 100 where 0 is no effect and 100 is complete control), Nutsedge, Yellow (nutsedge, yellow): 0
Nutsedge, Yellow plant response rating (nutsedge, yellow): 0
Plant response rating, Nutsedge, Yellow (nutsedge, yellow; [10]): 40
Plant response rating, Nutsedge, Yellow (nutsedge, yellow; [11]): 5
Velvetleaf plant response rating (velvetleaf; [8]): 90
Velvetleaf plant response rating (velvetleaf; [9]): 100
Plant response rating, Rice (rice): 30
Plant response rating (scale of 0 to 100), Corn (corn [3]; 250 g ai/ha): 95
Corn plant response rating (corn [3]; [12]): 30
Corn plant response rating (corn [3]; [13]): 45
Corn plant response rating (corn [3]; [14]): 90
Plant response rating (scale of 0 to 100), Ragweed (ragweed [4]; 250 g ai/ha): 100
Ragweed plant response rating (ragweed [4]; [12]): 50
Ragweed plant response rating (ragweed [4]; [13]): 98
Ragweed plant response rating (ragweed [4]; [14]): 100
Crabgrass, Large plant response rating (crabgrass, large; [8]): 100
Crabgrass, Large plant response rating (crabgrass, large; [9]): 100
Plant response rating (scale of 0 to 100), Galium (galium; 250 g ai/ha): 100
Galium plant response rating (galium; [12]): 75
Galium plant response rating (galium; [13]): 90
Galium plant response rating (galium; [14]): 95
Corn plant response rating (corn [5]; [15]): 90
Corn plant response rating (corn [5]; [16]): 50
Pigweed plant response rating (pigweed [6]; [15]): 100
Pigweed plant response rating (pigweed [6]; [16]): 100
Plant response rating (scale of 0 to 100 where 0 is no effect and 100 is complete control), Blackgrass (blackgrass): 10
Blackgrass plant response rating (blackgrass): 10
Plant response rating, Blackgrass (blackgrass; [10]): 35
Plant response rating, Blackgrass (blackgrass; [11]): 15

CCNC(=O)c1cc(CC)n(Cc2cc(C(F)(F)F)nn2C)n1 [Compound 154]
Plant response rating, Ragweed (ragweed [1]; [7]): 35
Plant response rating, Ragweed (ragweed [1]; [17]): 15
Wheat plant response rating (0 to 100 scale) (wheat; [18]): 0
Wheat plant response rating (wheat; [9]): 100
Foxtail, Giant plant response rating (0 to 100 scale) (foxtail, giant; [18]): 100
Foxtail, Giant plant response rating (foxtail, giant; [9]): 100
Pigweed plant response rating (pigweed [2]): 65
Plant response rating, Pigweed (pigweed [2]; [10]): 95
Plant response rating, Pigweed (pigweed [2]; [11]): 85
Plant response rating (scale of 0 to 100 where 0 is no effect and 100 is complete control), Nutsedge, Yellow (nutsedge, yellow): 0
Nutsedge, Yellow plant response rating (nutsedge, yellow): 0
Plant response rating, Nutsedge, Yellow (nutsedge, yellow; [10]): 5
Plant response rating, Nutsedge, Yellow (nutsedge, yellow; [11]): 5
Velvetleaf plant response rating (0 to 100 scale) (velvetleaf; [18]): 90
Velvetleaf plant response rating (velvetleaf; [9]): 100
Plant response rating, Rice (rice): 0
Corn plant response rating (corn [3]; [12]): 0
Corn plant response rating (corn [3]; [13]): 5
Plant response rating, Corn (corn [3]; [19]): 40
Corn plant response rating (corn [3]; [20]): 95
Ragweed plant response rating (ragweed [4]; [12]): 25
Ragweed plant response rating (ragweed [4]; [13]): 80
Plant response rating, Ragweed (ragweed [4]; [19]): 98
Ragweed plant response rating (ragweed [4]; [20]): 98
Crabgrass, Large plant response rating (0 to 100 scale) (crabgrass, large; [18]): 100
Crabgrass, Large plant response rating (crabgrass, large; [9]): 100
Galium plant response rating (galium; [12]): 90
Galium plant response rating (galium; [13]): 100
Plant response rating, Galium (galium; [19]): 100
Galium plant response rating (galium; [20]): 100
Corn plant response rating (corn [5]; [21]): 100
Corn plant response rating (corn [5]; [16]): 40
Pigweed plant response rating (pigweed [6]; [21]): 100
Pigweed plant response rating (pigweed [6]; [16]): 100
Plant response rating (scale of 0 to 100 where 0 is no effect and 100 is complete control), Blackgrass (blackgrass): 0
Blackgrass plant response rating (blackgrass): 0
Plant response rating, Blackgrass (blackgrass; [10]): 40
Plant response rating, Blackgrass (blackgrass; [11]): 10
